Read-outs that look alike come from different tables or passages of the source.
Assays:
NUGC3 (P53 Y220C) = assay: Cell viability assay (CellTiter-Glo, 6 days), NUGC3; assay type: cell-based; conditions: cell viability, 6 days, CellTiter-Glo, read-out: NUGC3 (P53 Y220C) IC50
Outline: (§1)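 After a 6-day compound exposure following overnight plating, ATP luminescence (CellTiter-Glo) gave percent viability relative to DMSO-treated cells and cell-free medium controls. IC50 = concentration at 50% viability, from 4-parameter logistic or Excel fit.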

[1] = target: T1, His-p53 Y220C (94-294) protein (Homo sapiens, UniProt P04637, Y220C); assay: In vitro DNA binding assay (HTRF); assay type: biochemical; conditions: % activation normalized to 2 μM Ref-1a high control
T1 construct: His-p53 Y220C (94-294) protein

NUGC4 (P53 WT) = assay: Cell viability assay (CellTiter-Glo, 6 days), NUGC4; assay type: cell-based; conditions: cell viability, 6 days, CellTiter-Glo, read-out: NUGC4 (P53 WT) IC50
Outline: as §1

[2] = tested on: NUGC-3_P53_Luc single clonal cell line (p53 Y220C); assay: Reporter gene assay (p53 RE luciferase); assay type: cell-based; conditions: luciferase reporter, 6 hours, normalized to Ref-1a (10 μM) high control, read-out: p53(Y220C)_NUGC-3 EC50
Outline: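 Luminescence normalised to DMSO-only (0%) and 10 μM Ref-1a (100%) wells gives % activity, fitted by 4-parameter logistic or Excel to yield EC50 at 50%. Reporter line: NUGC-3 with p53 response element-luc2P, compound-treated 6 h at 37 °C.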

SMILES | EC50 [1] [nM] | IC50 (NUGC3 (P53 Y220C)) [nM] | IC50 (NUGC4 (P53 WT)) [nM] | EC50 [2] [nM] | IC50 (NUGC3 (P53 Y220C); Homo sapiens, NUGC-3, 144 h) [nM] | IC50 (NUGC4 (P53 WT); Homo sapiens, NUGC-4, 144 h) [nM] | EC50 ([2]; Homo sapiens, NUGC-3) [nM] | EC50 ([2]; Homo sapiens, NUGC-3, 6 h) [nM]
COc1cc(P(C)(C)=O)c(F)cc1NCC#Cc1sc2c(NC3CCN(C)CC3F)cccc2c1CC(F)(F)F (stereo not drawn) [Example 52, (2-fluoro-4-((3-(7-(((Z)-3-fluoro-1-methylpiperidin-4-yl)amino)-3-(2,2,2-trifluoroethyl)benzo[b]thiophen-2-yl)prop-2-yn-1-yl)amino)-5-methoxyphenyl)dimethylphosphine oxide] | 55 | 750 | 4580 | 230 |  |  |  | 
CNC(=O)c1ccc(NCC#Cc2cc3c(N[C@@H]4CCN(C)C[C@@H]4F)cccc3n2CC(F)(F)F)c(OC)c1 [Example 57, 4-((3-(4-(((Z)-3-fluoro-1-methylpiperidin-4-yl)amino)-1-(2,2,2-trifluoroethyl)-1H-indol-2-yl)prop-2-yn-1-yl)amino)-3-methoxy-N-methylbenzamide] | 29 |  |  |  | 1110 | 12000 | 80 | 
COCC(O)CNC(=O)c1ccc(NCC#Cc2sc3c(NC4CCN(C)CC4F)cccc3c2CC(F)(F)F)c(OC)c1 (stereo not drawn) [Example 59, 4-((3-(7-(((Z)-3-fluoro-1-methylpiperidin-4-yl)amino)-3-(2,2,2-trifluoroethyl)benzo[b]thiophen-2-yl)prop-2-yn-1-yl)amino)-N-(2-hydroxy-3-methoxypropyl)-3-methoxybenzamide] | 73 | 1440 | 9820 | 150 |  |  |  | 
CNC(=O)c1cc(OC)c(NCC#Cc2sc3c(NC4CCN(C)CC4F)cccc3c2CC(F)(F)F)cn1 (stereo not drawn) [Example 60, 5-((3-(3-(2,2,2-trifluoroethyl)-7-(((Z)-3-fluoro-1-methylpiperidin-4-yl)amino)benzo[b]thiophen-2-yl)prop-2-yn-1-yl)amino)-4-methoxy-N-methylpicolinamide] | 72 | 1950 | 6100 | 470 |  |  |  | 
COc1cc(C(N)=O)ncc1NCC#Cc1sc2c(NC3CCN(C)CC3F)cccc2c1CC(F)(F)F (stereo not drawn) [Example 61, 5-((3-(3-(2,2,2-trifluoroethyl)-7-(((Z)-3-fluoro-1-methylpiperidin-4-yl)amino)benzo[b]thiophen-2-yl)prop-2-yn-1-yl)amino)-4-methoxypicolinamide] | 102 | 4530 | 13000 | 530 |  |  |  | 
CNC(=O)c1ccc(NCC#Cc2sc3c(NC4CCN(C)CC4F)cccc3c2CC(F)(F)F)c(OC)n1 (stereo not drawn) [Example 62, 5-((3-(7-(((Z)-3-fluoro-1-methylpiperidin-4-yl)amino)-3-(2,2,2-trifluoroethyl)benzo[b]thiophen-2-yl)prop-2-yn-1-yl)amino)-6-methoxy-N-methylpicolinamide] | 64 | 1430 | 3700 | 340 |  |  |  | 
CN1CC[C@@H](Nc2cccc3c(CC(F)(F)F)c(C#CCNc4ccc(P(C)(C)=O)cc4F)sc23)[C@@H](F)C1 [Example 84, (3-fluoro-4-((3-(7-(((3S,4R)-3-fluoro-1-methylpiperidin-4-yl)amino)-3-(2,2,2-trifluoroethyl)benzo[b]thiophen-2-yl)prop-2-yn-1-yl)amino)phenyl)dimethylphosphine oxide] | 45 |  |  |  | 1420 | 11500 |  | 170
CN1CC[C@@H](Nc2cccc3c(CC(F)(F)F)c(C#CCNc4ccc(P(C)(C)=O)cc4C(F)(F)F)sc23)[C@@H](F)C1 [Example 105, (4-((3-(7-(((3S,4R)-3-fluoro-1-methylpiperidin-4-yl)amino)-3-(2,2,2-trifluoroethyl)benzo[b]thiophen-2-yl)prop-2-yn-1-yl)amino)-3-(trifluoromethyl)phenyl)dimethylphosphine oxide] | 35 |  |  |  | 1830 | 10000 |  | 200
CNC(=O)c1ccc(NCC#Cc2cc3c(N[C@@H]4CCN(C)C[C@@H]4F)cccc3n2CC(F)(F)F)c(OC)c1 [Example 110, 4-((3-(4-(((3S,4R)-3-fluoro-1-methylpiperidin-4-yl)amino)-1-(2,2,2-trifluoroethyl)-1H-indol-2-yl)prop-2-yn-1-yl)amino)-3-methoxy-N-methylbenzamide] | 27 |  |  |  | 1020 | 14200 |  | 40
CNC(=O)c1ccc(NCC#Cc2cc3c(N[C@H]4CCN(C)C[C@H]4F)cccc3n2CC(F)(F)F)c(OC)c1 [Example 111, 4-((3-(4-(((3R,4S)-3-fluoro-1-methylpiperidin-4-yl)amino)-1-(2,2,2-trifluoroethyl)-1H-indol-2-yl)prop-2-yn-1-yl)amino)-3-methoxy-N-methylbenzamide] | 101 |  |  |  | 1840 | 13100 |  | 160

The next lines start with results.

EC50 [1] [nM] | SMILES | IC50 (NUGC3 (P53 Y220C)) [nM] | IC50 (NUGC4 (P53 WT)) [nM] | EC50 [2] [nM] | IC50 (NUGC3 (P53 Y220C); Homo sapiens, NUGC-3, 144 h) [nM] | IC50 (NUGC4 (P53 WT); Homo sapiens, NUGC-4, 144 h) [nM] | EC50 ([2]; Homo sapiens, NUGC-3) [nM] | EC50 ([2]; Homo sapiens, NUGC-3, 6 h) [nM]
44 | CN1CCC(Nc2cccc3c(CC(F)(F)F)c(C#CCNc4ccc(P(C)(C)=O)cc4OC(F)F)sc23)C(F)C1 (stereo not drawn) [Example 64, (3-(difluoromethoxy)-4-((3-(7-(((Z)-3-fluoro-1-methylpiperidin-4-yl)amino)-3-(2,2,2-trifluoroethyl)benzo[b]thiophen-2-yl)prop-2-yn-1-yl)amino)phenyl)dimethylphosphine oxide] | 980 | 13600 | 150 |  |  |  | 
46 | CN1CCC(Nc2cccc3c(CC(F)(F)F)c(C#CCNc4ccc(P(C)(C)=O)cc4OC(F)(F)F)sc23)C(F)C1 (stereo not drawn) [Example 65, (4-((3-(7-(((Z)-3-fluoro-1-methylpiperidin-4-yl)amino)-3-(2,2,2-trifluoroethyl)benzo[b]thiophen-2-yl)prop-2-yn-1-yl)amino)-3-(trifluoromethoxy)phenyl)dimethylphosphine oxide] | 1560 | 10000 | 120 |  |  |  | 
44 | COc1cc(C(=O)NC2CCN(C)CC2F)ccc1NCC#Cc1sc2c(NC3CCN(C)CC3F)cccc2c1CC(F)(F)F (stereo not drawn) [Example 68, N-(3-fluoro-1-methylpiperidin-4-yl)-4-((3-(7-(((Z)-3-fluoro-1-methylpiperidin-4-yl)amino)-3-(2,2,2-trifluoroethyl)benzo[b]thiophen-2-yl)prop-2-yn-1-yl)amino)-3-methoxybenzamide] | 1080 | 1390 | 640 |  |  |  | 
53 | COc1cc(P(C)(C)=O)ccc1NCC#Cc1sc2c(NC3CCN(C)CC34CC4)cccc2c1CC(F)(F)F (stereo not drawn) [Example 89, (3-methoxy-4-((3-(7-((5-methyl-5-azaspiro[2.5]octan-8-yl)amino)-3-(2,2,2-trifluoroethyl)benzo[b]thiophen-2-yl)prop-2-yn-1-yl)amino)phenyl)dimethylphosphine oxide] |  |  |  | 820 | 4540 | 230 | 
47 | COc1cc(P(C)(C)=O)ncc1NCC#Cc1sc2c(N[C@@H]3CCN(C)C[C@@H]3F)cccc2c1CC(F)(F)F [Example 92, (5-((3-(7-(((3S,4R)-3-fluoro-1-methylpiperidin-4-yl)amino)-3-(2,2,2-trifluoroethyl)benzo[b]thiophen-2-yl)prop-2-yn-1-yl)amino)-4-methoxypyridin-2-yl)dimethylphosphine oxide] |  |  |  | 990 | 13400 | 180 | 
